The values that follow come from ChEMBL document CHEMBL1201862, “PubChem BioAssay data set” (2004).

Molecules are shown by their SMILES.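 In this assay, cells in 96-well plates receive the compound at five concentrations for 48 hours. Endpoints are linearly interpolated between the surrounding concentrations. GI50 = concentration required for 50% inhibition of growth.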 The source made the active and inactive calls. Rule as the data show it: active = GI50 up to about 1.1 µM and inactive = higher. Bounds are passed on as bounds.

Among the test systems are IGROV-1; KM12; K562; SK-MEL-28; LOX IMVI; HT-29; SK-MEL-5; MDA-N; SK-MEL-2; CCRF-CEM; SR; NCI-H460; HOP-92; SF-268; MDA-MB-231; SK-OV-3; M14; U-251; RXF 393; 786-0.
What all share (experiment): DTP human tumour cell line panel, 48 h

Broadly, the GI50 is the concentration at which growth is held to half of that of the control. On to `NC(=O)C(N)CC12CC3CC(CC(C3)C1)C2` (stereo not given), for which the GI50 with IGROV-1 is > 10 µM (inactive); in the assay on KM12, 20.1 µM (inactive); with K562 it was 28.9 µM (inactive); in the assay with SK-MEL-28, 20.1 µM (inactive); in the assay with LOX IMVI it was 16 µM (inactive); in the assay with HT-29, 28.1 µM (inactive). Moreover, the GI50 is 15.2 µM (inactive) in the assay with SK-MEL-5; 13.6 µM (inactive) in the assay with MDA-N; 24.6 µM (inactive) with SK-MEL-2; 26.7 µM (inactive) in the assay on CCRF-CEM; 17.2 µM (inactive) in the assay on SR; 34.4 µM (inactive) in the assay with NCI-H460. Also, the GI50 was 15.5 µM (inactive) with HOP-92; 22.4 µM (inactive) in the assay on SF-268; 14 µM (inactive) in the assay on MDA-MB-231; 33.3 µM (inactive) in the assay on SK-OV-3; 19.3 µM (inactive) in the assay with M14; 17.5 µM (inactive) in the assay with U-251. Further, the values for the GI50 in the assay with RXF 393 and in the assay with 786-0 were 16.3 µM (inactive) and 22.3 µM (inactive), respectively.
As for `Cc1ccc(C(=O)/C=C2\Nc3cccnc3NC2=O)cc1`, the GI50 with IGROV-1, with KM12, with K562, with SK-MEL-28, in the assay on LOX IMVI and in the assay with HT-29 was > 100 µM (inactive) in each case. Further, the GI50 in the assay on SK-MEL-5, in the assay on MDA-N, in the assay with SK-MEL-2, with CCRF-CEM, in the assay with SR and in the assay with NCI-H460 was > 100 µM (inactive) throughout. The GI50 was > 100 µM (inactive) in the assay on HOP-92; 55.8 µM (inactive) in the assay with SF-268; 30.8 µM (inactive) in the assay with MDA-MB-231; > 100 µM (inactive) with SK-OV-3; > 100 µM (inactive) in the assay with M14; 39.5 µM (inactive) in the assay on U-251. Besides, the values for the GI50 with RXF 393 and in the assay on 786-0 were 21.7 µM (inactive) and 40.2 µM (inactive), respectively.
On to `COc1ccc(Nc2c(C#N)c3n(c4ccccc24)c2ccccc2[n+]3C)cc1OC`, for which the GI50 in the assay with IGROV-1 is 3.58 µM (inactive); in the assay with KM12, 3.98 µM (inactive); in the assay with K562 it was 2.33 µM (inactive); in the assay with SK-MEL-28, 4.43 µM (inactive); in the assay with LOX IMVI, 1.9 µM (inactive); with HT-29 it was 3.13 µM (inactive). Also, the GI50 in the assay on SK-MEL-5 was 3.49 µM (inactive); in the assay with MDA-N it was 2.7 µM (inactive); with SK-MEL-2 it was 3.86 µM (inactive); in the assay with CCRF-CEM it was > 100 µM (inactive); with SR, 6.46 µM (inactive); with NCI-H460 it was 1.93 µM (inactive). In addition, the GI50 in the assay on HOP-92 is 9.44 µM (inactive); with SF-268, 1.76 µM (inactive); in the assay on MDA-MB-231, 1.73 µM (inactive); in the assay with SK-OV-3, 5.14 µM (inactive); in the assay on M14, 2.94 µM (inactive); in the assay on U-251 it was 2.7 µM (inactive). Besides, the values for the GI50 in the assay with RXF 393 and in the assay on 786-0 were 2.82 µM (inactive) and 2.12 µM (inactive), respectively.
Take `CC(CCC#N)(CCC#N)C(=O)CC(O)(C(F)(F)F)C(F)(F)F`: the GI50 in the assay on IGROV-1 was 13.2 µM (inactive); in the assay with KM12 it was 18.1 µM (inactive); in the assay on K562 it was 1.36 µM (inactive); in the assay with SK-MEL-28 it was 11 µM (inactive); in the assay with LOX IMVI, 2.07 µM (inactive); in the assay on HT-29 it was 6.65 µM (inactive). The GI50 in the assay on SK-MEL-5 was 13.3 µM (inactive); in the assay on MDA-N it was 1.73 µM (inactive); in the assay on SK-MEL-2, 33.7 µM (inactive); in the assay on CCRF-CEM it was 1.54 µM (inactive); with SR it was 1.4 µM (inactive); in the assay with NCI-H460, 16.6 µM (inactive). For the same molecule, the GI50 in the assay with HOP-92 is 4.86 µM (inactive); with SF-268, 7.89 µM (inactive); in the assay with MDA-MB-231 it was 4.06 µM (inactive); in the assay on SK-OV-3, 47 µM (inactive); in the assay with M14, 2.1 µM (inactive); in the assay on U-251 it was 9.16 µM (inactive). The GI50 was 2.07 µM (inactive) with RXF 393 and 2.12 µM (inactive) with 786-0.
As to `CC1(C)CC2(C)ON=C(c3ccccc3)N2c2ccccc2N1` (stereo not given), the GI50 is 32.1 µM (inactive) in the assay with IGROV-1; 30.6 µM (inactive) with KM12; 19.8 µM (inactive) in the assay with K562; 23 µM (inactive) with SK-MEL-28; 17.3 µM (inactive) in the assay with LOX IMVI; 16.4 µM (inactive) in the assay with HT-29. Besides, the GI50 was 16.7 µM (inactive) in the assay with SK-MEL-5; 21.2 µM (inactive) in the assay with MDA-N; 20.9 µM (inactive) in the assay with SK-MEL-2; 32.7 µM (inactive) with CCRF-CEM; 34.5 µM (inactive) with SR; 20.9 µM (inactive) with NCI-H460. The GI50 in the assay with HOP-92 is 21.6 µM (inactive); in the assay with SF-268, 22.1 µM (inactive); in the assay on MDA-MB-231 it was 14.4 µM (inactive); in the assay with SK-OV-3 it was 21.7 µM (inactive); with M14, 19.6 µM (inactive); in the assay on U-251 it was 19.8 µM (inactive). Moreover, the GI50 in the assay on RXF 393 is 20.8 µM (inactive); in the assay on 786-0, 23.3 µM (inactive).
Regarding `O=N/N=c1\o[n-][n+](CCc2ccccc2)c1Cc1/c(=N/N=O)o[n-][n+]1CCc1ccccc1`, the GI50 with IGROV-1 was 25.1 µM (inactive); in the assay with KM12, 78.2 µM (inactive); in the assay on K562, 25.2 µM (inactive); in the assay with SK-MEL-28, 55.6 µM (inactive); in the assay with LOX IMVI, 91.4 µM (inactive); with HT-29 it was 76 µM (inactive). The GI50 with SK-MEL-5 is 31.2 µM (inactive); in the assay on MDA-N, 80.9 µM (inactive); in the assay with SK-MEL-2 it was 29.6 µM (inactive); in the assay with CCRF-CEM it was > 100 µM (inactive); with SR it was 31.2 µM (inactive); with NCI-H460 it was 33.7 µM (inactive). The GI50 is 27.1 µM (inactive) in the assay on HOP-92; 32 µM (inactive) in the assay with SF-268; 33.9 µM (inactive) in the assay with MDA-MB-231; 34.4 µM (inactive) in the assay with SK-OV-3; 89.5 µM (inactive) with M14; 22.1 µM (inactive) with U-251. In addition, the GI50 in the assay with RXF 393 is 39.2 µM (inactive); in the assay on 786-0, 20.2 µM (inactive).
Consider `N#Cc1c(NC(=S)NCc2ccccc2)sc2c1CCN(N1CCc3c(sc(NC(=S)NCc4ccccc4)c3C#N)C1)C2`, for which the GI50 with IGROV-1, in the assay on KM12, in the assay with K562, with SK-MEL-28, in the assay with LOX IMVI and with HT-29 was > 100 µM (inactive) in each case. Moreover, the GI50 in the assay with SK-MEL-5, in the assay with MDA-N, in the assay with SK-MEL-2, in the assay with CCRF-CEM, in the assay with SR and with NCI-H460 was > 100 µM (inactive) in each case. Besides, the GI50 with HOP-92, in the assay with SF-268, in the assay with MDA-MB-231, in the assay on SK-OV-3, with M14 and with U-251 was > 100 µM (inactive) in each case. The GI50 in the assay with RXF 393 and in the assay on 786-0 was > 100 µM (inactive) each time.
Turning to `COc1cc(NCc2ccc3nc(N)nc(N)c3c2C)cc(OC)c1OC`, the GI50 was 0.0316 µM (active) in the assay on IGROV-1; 0.0478 µM (active) in the assay on KM12; 0.038 µM (active) in the assay on K562; 0.313 µM (active) with SK-MEL-28; 0.025 µM (active) with LOX IMVI; 0.0267 µM (active) in the assay on HT-29. For the same molecule, the GI50 is 0.0289 µM (active) with SK-MEL-5; 0.0002 µM (active) in the assay with MDA-N; 17.9 µM (inactive) with SK-MEL-2; 0.025 µM (active) in the assay on CCRF-CEM; 0.000359 µM (active) with SR; 0.025 µM (active) in the assay on NCI-H460. Also, the GI50 is 0.75 µM (active) with HOP-92; 0.0258 µM (active) in the assay with SF-268; 4.03 µM (inactive) in the assay with MDA-MB-231; 2.84 µM (inactive) with SK-OV-3; 0.00024 µM (active) in the assay on M14; 0.0379 µM (active) in the assay with U-251. The GI50 is 2.15 µM (inactive) in the assay on RXF 393 and 0.00106 µM (active) in the assay on 786-0.
With `CC1=NCC[N+]1(CCc1ccccc1)Cc1ccccc1` (stereo not given), the GI50 is 17.3 µM (inactive) in the assay with IGROV-1; 47.2 µM (inactive) in the assay on KM12; 2.94 µM (inactive) with K562; 64.6 µM (inactive) in the assay on SK-MEL-28; 44.9 µM (inactive) in the assay with LOX IMVI; 12.5 µM (inactive) in the assay on HT-29. Also, the GI50 with SK-MEL-5 was 14.7 µM (inactive); with MDA-N, 46.3 µM (inactive); with SK-MEL-2, 27.7 µM (inactive); in the assay with CCRF-CEM, 34.5 µM (inactive); with SR, 13.4 µM (inactive); in the assay on NCI-H460, 34.8 µM (inactive). The GI50 is 4.78 µM (inactive) in the assay with HOP-92; 27.6 µM (inactive) in the assay on SF-268; 62.4 µM (inactive) in the assay on MDA-MB-231; > 100 µM (inactive) in the assay with SK-OV-3; 50.5 µM (inactive) in the assay with M14; 29.3 µM (inactive) with U-251. The GI50 in the assay with RXF 393 and with 786-0 was > 100 µM (inactive) throughout.
Turning to `O=C1O[C@H]2[C@H](OC(=O)c3cc(O)c(O)c(O)c3)[C@@H](OC(=O)c3cc(O)c(O)c4c3[C@@H]3C1=CC(=O)C(O)(O)C3(O)O4)[C@H](OC(=O)c1cc(O)c(O)c(O)c1)O[C@@H]2COC(=O)c1cc(O)c(O)c(O)c1` (stereo not given in full) [TERCHEBIN], the GI50 is 47.8 µM (inactive) in the assay with IGROV-1; 14.6 µM (inactive) in the assay on KM12; 31.9 µM (inactive) in the assay with K562; > 100 µM (inactive) in the assay with SK-MEL-28; 25.1 µM (inactive) with LOX IMVI; 37.4 µM (inactive) with HT-29. In addition, the GI50 in the assay on SK-MEL-5 is 75.7 µM (inactive); with MDA-N, 53.5 µM (inactive); with SK-MEL-2 it was > 100 µM (inactive); in the assay with CCRF-CEM, 23 µM (inactive); with SR it was 44.2 µM (inactive); in the assay with NCI-H460, 30.1 µM (inactive). In addition, the GI50 is 47.8 µM (inactive) with HOP-92; 59.3 µM (inactive) in the assay with SF-268; 41.9 µM (inactive) with MDA-MB-231; 38.3 µM (inactive) with SK-OV-3; 60.7 µM (inactive) in the assay with M14; 54.1 µM (inactive) with U-251. Moreover, the values for the GI50 with RXF 393 and in the assay with 786-0 were > 100 µM (inactive) and 60.8 µM (inactive), respectively.
